Among the test systems are EKVX; HCC 2998; HOP-92; HT-29; IGROV-1; KM12; MDA-MB-435; Malme-3M; NCI-H226; OVCAR-3; OVCAR-8; PC-3; RPMI-8226; RXF 393; SK-MEL-28; SN12C; TK-10; UACC-257; HCT-15; HL-60.
Holding throughout (assay): growth of human tumour cells (NCI), 48 h

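Growth conditions: 96-well plates. Treatment: test compound, 48 hours, 5 concentrations. Analysis: linear interpolation between bracketing concentrations; unreached endpoints set to highest concentration. Abbreviation: GI50, concentration required for 50% inhibition of growth.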 Calls of active or inactive are those of the source. Rule as the data show it: active = GI50 up to about 1.1 µM and inactive = higher. Positions of bridges follow the written chain, without caps; N, C: chain ends. Non-standard residues stand in square brackets, D forms with d. Residues, ends and D or L forms follow the SMILES beside them. ξ: configuration not given here. *: point of attachment. X28 = O=C(/C=C/C=C/C=C/C=C/C=C/C(=O)*)NC1=C(O)CCC1=O; Pro(4R-Me) = C[C@H]1CN[C@H](C(=O)O)C1; NMeA = CN[C@@H](C)C(=O)O; ξF = NC(Cc1ccccc1)C(=O)O; ξA = CC(N)C(=O)O

Turning to `Brc1ccc2c(-c3csc(-c4c[nH]c5ccccc45)n3)c[nH]c2c1`, the GI50 was 15.6 µM (inactive) in the test with EKVX; 15.1 µM (inactive) with HCC 2998; 15.6 µM (inactive) with HOP-92; 15.6 µM (inactive) in the test on HT-29; 13 µM (inactive) in the test with IGROV-1; 14.2 µM (inactive) in the test with KM12. The GI50 with MDA-MB-435 is 14.9 µM (inactive); with Malme-3M, 16.9 µM (inactive); in the test with NCI-H226 it was 14.5 µM (inactive); in the test with OVCAR-3, 13.8 µM (inactive); in the test with OVCAR-8 it was 18.2 µM (inactive); in the test with PC-3, 15.6 µM (inactive). The GI50 in the test with RPMI-8226 was 19.4 µM (inactive); in the test on RXF 393 it was 22.4 µM (inactive); with SK-MEL-28 it was 14.9 µM (inactive); in the test with SN12C, 17.3 µM (inactive); with TK-10, 12.4 µM (inactive); with UACC-257 it was 22.8 µM (inactive).

For the compound `Oc1cccc(-c2cn3cc(C(F)(F)F)ccc3n2)c1`, the GI50 in the test with EKVX was 17.5 µM (inactive); with HCC 2998, 22.6 µM (inactive); in the test on HCT-15, 29.2 µM; with HL-60, 32.6 µM (inactive); in the test with HOP-92 it was 55.2 µM (inactive); in the test with HT-29, 24.1 µM (inactive). In addition, the GI50 in the test on IGROV-1 was 20.4 µM (inactive); in the test on KM12, 28.6 µM (inactive); in the test on MDA-MB-435, 32 µM (inactive); in the test with Malme-3M, 27.9 µM (inactive); in the test with NCI-H226, 46.9 µM (inactive); in the test on OVCAR-3, 19.5 µM (inactive). Also, the GI50 is 27.8 µM (inactive) with OVCAR-8; 32.2 µM (inactive) in the test on PC-3; 13.8 µM (inactive) in the test on RXF 393; 61.9 µM (inactive) in the test with SK-MEL-28; 47.9 µM (inactive) in the test on SN12C; 22.5 µM (inactive) in the test with TK-10. For the same compound, the GI50 in the test with UACC-257 is 22.9 µM (inactive).

Take `C[C@]12CCC(=O)O[C@H]1CCCCO2`: the GI50 with EKVX is > 100 µM (inactive); in the test with HCC 2998, > 100 µM (inactive); in the test on HCT-15 it was above 100 µM; with HL-60, > 100 µM (inactive); with HOP-92 it was 28.1 µM (inactive); in the test on HT-29 it was > 100 µM (inactive). Further, the GI50 in the test with IGROV-1, in the test on KM12, in the test with MDA-MB-435, with Malme-3M, in the test on NCI-H226 and with OVCAR-3 was > 100 µM (inactive) each time. Further, the GI50 in the test on OVCAR-8, with PC-3, in the test with RXF 393, with SK-MEL-28, with SN12C and in the test with TK-10 was > 100 µM (inactive) each time. Also, the GI50 in the test with UACC-257 is > 100 µM (inactive).

With `CCOC(=O)c1cn2c(n1)sc1cc(C)c(C)cc12`, the GI50 with EKVX is 22.3 µM (inactive); in the test with HCC 2998, 66.1 µM (inactive); with HCT-15, 27.9 µM; in the test with HOP-92 it was 25.4 µM (inactive); in the test on HT-29, 18 µM (inactive); in the test on IGROV-1, 23 µM (inactive). The GI50 is 15 µM (inactive) in the test with KM12; 20.3 µM (inactive) in the test with MDA-MB-435; 17.3 µM (inactive) in the test with Malme-3M; 18.9 µM (inactive) in the test on NCI-H226; 17.5 µM (inactive) with OVCAR-3; 24.2 µM (inactive) in the test with OVCAR-8. The GI50 was 21.2 µM (inactive) in the test with PC-3; 25.6 µM (inactive) in the test on RPMI-8226; 22.1 µM (inactive) in the test on RXF 393; 19.2 µM (inactive) in the test with SK-MEL-28; 19.1 µM (inactive) in the test with SN12C; 24.6 µM (inactive) with TK-10. The GI50 in the test on UACC-257 was 31.8 µM (inactive).

For `O=CC12C3CCC1C2C(=O)C3` (stereo not given), the GI50 was > 100 µM (inactive) in the test on EKVX; > 100 µM (inactive) in the test on HCC 2998; above 100 µM with HCT-15; > 100 µM (inactive) with HOP-92; > 100 µM (inactive) with HT-29; > 100 µM (inactive) in the test with IGROV-1. Further, the GI50 in the test with KM12, in the test with MDA-MB-435, in the test with Malme-3M, with NCI-H226, in the test with OVCAR-3 and with OVCAR-8 was > 100 µM (inactive) each time. Moreover, the GI50 in the test on PC-3, in the test with RPMI-8226, with RXF 393, in the test with SK-MEL-28, in the test on SN12C and in the test with TK-10 was > 100 µM (inactive) in each case. In addition, in the test with UACC-257, the GI50 is > 100 µM (inactive).

With `COC(=O)c1cc(C#N)[nH]c1-c1cccs1`, the GI50 in the test with EKVX was 91.2 µM (inactive); with HCC 2998 it was > 100 µM (inactive); in the test with HCT-15, 57.4 µM; with HOP-92, 30.8 µM (inactive); in the test on KM12 it was > 100 µM (inactive); in the test on MDA-MB-435, > 100 µM (inactive). The GI50 in the test on NCI-H226 was > 100 µM (inactive); in the test with OVCAR-3, 56.5 µM (inactive); with OVCAR-8 it was > 100 µM (inactive); in the test on PC-3, 47.1 µM (inactive); with RPMI-8226 it was 36.6 µM (inactive); in the test on RXF 393, 22.6 µM (inactive). In addition, the GI50 in the test with SK-MEL-28, in the test on SN12C and in the test on UACC-257 was > 100 µM (inactive) in each case.

On to `COC(=O)CCc1ccc2c(c1)C(=O)CC2`, for which the GI50 with EKVX was > 100 µM (inactive); with HCC 2998, > 100 µM (inactive); with HCT-15, above 100 µM; with HL-60 it was > 100 µM (inactive); in the test on HOP-92, > 100 µM (inactive); in the test with HT-29, > 100 µM (inactive). Besides, the GI50 in the test with IGROV-1, with MDA-MB-435, in the test on Malme-3M, in the test with OVCAR-3, with OVCAR-8 and with PC-3 was > 100 µM (inactive) throughout. Moreover, the GI50 in the test with RPMI-8226, in the test with RXF 393, in the test with SK-MEL-28, in the test with TK-10 and with UACC-257 was > 100 µM (inactive) in each case.

For the compound `C=C1CC2[C@H](C)C(=O)CCC2(C)C2=C1C1CCC(C(C)CCC(=C)C(C)C(=O)O)C1(C)CC2=O` (stereo not given in full), the GI50 with EKVX was 71.8 µM (inactive); in the test with HCC 2998 it was 47 µM (inactive); with HCT-15 it was 40.5 µM; in the test with HL-60, 15.2 µM (inactive); in the test with HOP-92 it was 29.7 µM (inactive); with HT-29, 62.1 µM (inactive). Moreover, the GI50 in the test with IGROV-1 was 56.9 µM (inactive); in the test with KM12, 71.4 µM (inactive); in the test with MDA-MB-435, 58.5 µM (inactive); in the test on Malme-3M, > 100 µM (inactive); with NCI-H226 it was 82 µM (inactive); in the test on OVCAR-3, 30.5 µM (inactive). Also, the GI50 with OVCAR-8 is 75.7 µM (inactive); in the test on PC-3, 32.1 µM (inactive); with RXF 393, 30.1 µM (inactive); with SK-MEL-28, > 100 µM (inactive); with SN12C, > 100 µM (inactive); in the test on TK-10, 44.9 µM (inactive). Further, the GI50 in the test on UACC-257 was 29.2 µM (inactive).

With `C=CCOc1ccc(C(=N/NC(=O)c2ccccc2)/N=N/c2ccc([N+](=O)[O-])cc2)cc1OC`, the GI50 was > 100 µM (inactive) in the test with EKVX; 74.1 µM (inactive) in the test with HCC 2998; above 100 µM in the test on HCT-15; 93.3 µM (inactive) in the test with HL-60; 18.6 µM (inactive) in the test with HOP-92; > 100 µM (inactive) with HT-29. The GI50 with IGROV-1, in the test with KM12, with MDA-MB-435, in the test with Malme-3M, with NCI-H226 and in the test with OVCAR-3 was > 100 µM (inactive) each time. Also, the GI50 with OVCAR-8, in the test on PC-3, in the test with RXF 393, in the test on SK-MEL-28, with SN12C and in the test with TK-10 was > 100 µM (inactive) each time. Besides, the GI50 in the test on UACC-257 is > 100 µM (inactive).

As to `COc1ccc(-c2cc(-c3ccccc3)nc3c2CC(=O)Nc2ccccc2-3)cc1OC`, the GI50 in the test with EKVX was > 100 µM (inactive); with HCC 2998, > 100 µM (inactive); with HCT-15, above 100 µM; in the test with HOP-92 it was 5.46 µM (inactive); in the test with HT-29, 0.719 µM (active); in the test with IGROV-1, > 100 µM (inactive). In addition, the GI50 in the test on KM12 was > 100 µM (inactive); in the test with MDA-MB-435, > 100 µM (inactive); in the test with NCI-H226, 2.92 µM (inactive); in the test on OVCAR-3, 4.07 µM (inactive); in the test with OVCAR-8, 0.125 µM (active); with PC-3, > 100 µM (inactive). For the same compound, the GI50 in the test on RPMI-8226 is > 100 µM (inactive); in the test with RXF 393 it was 6.73 µM (inactive); in the test on SK-MEL-28, > 100 µM (inactive); in the test on SN12C, 1.26 µM (inactive); in the test with TK-10, > 56.1 µM (inactive); in the test on UACC-257, > 100 µM (inactive).

With `CC1NC(=O)[C@H](C)N(C)C(=O)[C@@H]2CCCN2C(=O)[C@@H](NC(=O)C(Cc2ccccc2)NC(=O)/C=C/C=C/C=C/C=C/C=C/C(=O)NC2=C(O)CCC2=O)COC(=O)[C@@H]2C[C@@H](C)CN2C1=O` (stereo partly drawn) (X28-[ξF]SP[NMeA][ξA][Pro(4R-Me)]; ester 2-C), the GI50 with EKVX was > 100 µM (inactive); in the test on HCC 2998, > 100 µM (inactive); with HCT-15, above 100 µM; in the test on HL-60, > 100 µM (inactive); in the test on HOP-92 it was > 100 µM (inactive); with HT-29, > 100 µM (inactive). For the same compound, the GI50 in the test with IGROV-1, in the test with KM12, in the test with MDA-MB-435, in the test with Malme-3M, in the test on OVCAR-3 and with PC-3 was > 100 µM (inactive) throughout. Also, the GI50 is > 100 µM (inactive) in the test on RPMI-8226; > 100 µM (inactive) in the test with RXF 393; > 100 µM (inactive) in the test with SK-MEL-28; > 100 µM (inactive) in the test with SN12C; 54.8 µM (inactive) with TK-10; > 100 µM (inactive) with UACC-257.

The values above are taken from ChEMBL document CHEMBL1201862, “PubChem BioAssay data set” (2004).
